Assay results taken from PubChem BioAssay AID1996.
Values after ≈ are worked out from the molar mass of the structure shown.

Settings: buffer; pH 7.4; 200.0 µM

Row | Structure (SMILES) | solubility kinetic
1 | CCC(C)NC(=O)c1c(N)n(CCCOC)c2nc3ccccc3nc12 (stereo not given) | 0.0064 mg/mL (≈ 18 µM)
2 | O=C(c1ccc(Cl)nc1)N1CCN(C/C=C/c2ccccc2)CC1 | > 0.0513 mg/mL
3 | CC(=O)Nc1ccc(C(=O)N2CCc3cc4c(cc3C2C)OCCCO4)cc1 (stereo not given) | > 0.0571 mg/mL
4 | O=C(Nc1ccc(F)cc1)Nc1ccc2c(c1)OCO2 | 0.0007 mg/mL (≈ 2.55 µM)
5 | COC(=O)/C(C#N)=C/c1ccc(N2CCOCC2)c([N+](=O)[O-])c1 | 0.011 mg/mL (≈ 34.7 µM)
6 | CC(C)N(c1ccccc1)c1ccc(NC(=S)NCCN(C)C)cc1 | 0.044 mg/mL (≈ 123 µM)
7 | N#C/C(=C\c1cccnc1)C(=O)Nc1cccc(Cl)c1 | 0.01 mg/mL (≈ 35.2 µM)
8 | CCC(Cc1ccccc1)NC(=O)/C=C/c1ccco1 (stereo not given) | 0.0237 mg/mL (≈ 88 µM)
9 | N#C/C(=C\c1cccnc1)C(=O)Nc1ccc(C(=O)O)cc1 | > 0.044 mg/mL
10 | Fc1ccc(-n2cc(-c3ccccc3)c3c(=S)nc[nH]c32)cc1 | < 0.0002 mg/mL
11 | CCCCCC(=O)Nc1ccc(-c2csc(N)n2)cc1 | 0.0059 mg/mL (≈ 20.4 µM)
12 | CCc1cc(=S)n2c([nH]c3ccccc32)c1C#N | 0.0326 mg/mL (≈ 129 µM)
13 | CCN(CC)Cc1cc(O)c(CN(CC)CC)cc1O | > 0.0421 mg/mL
14 | Cc1ccc(NC(=O)NCCCN2CCCC2=O)cc1C | > 0.0434 mg/mL
15 | CC(NC(=O)CCl)c1ccccc1Br (stereo not given) | > 0.0415 mg/mL
16 | Cc1ccc2nc(CCc3nc4ccc(C)cc4[nH]3)[nH]c2c1.Cl | 0.0089 mg/mL
17 | Cc1[nH]c(=S)c(C#N)c(-c2ccccc2)c1C(=O)Nc1ccccc1 | > 0.0518 mg/mL
18 | CCCCNC(=S)N1CCN(c2ccccc2Cl)CC1 | 0.0131 mg/mL (≈ 42 µM)
19 | O=S(N1CCc2ccccc21)C12CC3CC(CC(C3)C1)C2 (stereo not given) | 0.0044 mg/mL (≈ 14.6 µM)
20 | COC(=O)c1sc(S(=O)(=O)N2CCN(c3ccccc3F)CC2)c(C(=O)OC)c1C | 0.0021 mg/mL (≈ 4.6 µM)
21 | NC(=O)CN(Cc1ccccc1)S(=O)(=O)c1ccc2c(c1)OCCO2 | > 0.0544 mg/mL
22 | O=C1N=C(N2CCOCC2)S/C1=C/c1cc2c(cc1[N+](=O)[O-])OCO2 | 0.0448 mg/mL (≈ 123 µM)

Row | Structure (SMILES) | solubility kinetic
23 | CCOC(=O)C1CCCN(/C=C2\SC(=S)N(CC)C2=O)C1 (stereo not given) | 0.0394 mg/mL (≈ 120 µM)
24 | O=S(=O)(c1cccc2nsnc12)N1CCNCC1 | > 0.0427 mg/mL
25 | O=C(COC(=O)c1cccnc1)Nc1cccc2ccccc12 | 0.0421 mg/mL (≈ 137 µM)
26 | Cc1ccc(Cc2nc3ccccc3[nH]2)cc1 | 0.0318 mg/mL (≈ 143 µM)
27 | O=C(c1ccc(CNS(=O)(=O)c2cccc(Cl)c2)cc1)N1CCCCC1 | 0.0026 mg/mL (≈ 6.62 µM)
28 | COc1ccc(-c2ccc(S(=O)(=O)N3CCCC3)cc2)cc1 | 0.0011 mg/mL (≈ 3.47 µM)
29 | COc1ccc(C(=O)NCc2ccc(C(=O)O)o2)cc1 | > 0.0413 mg/mL
30 | COC(=O)c1cc(C(=O)Nc2ccc(Cl)cn2)cc([N+](=O)[O-])c1 | 0.0025 mg/mL (≈ 7.45 µM)
31 | CC1(c2ccccc2)CC(c2ccccc2)=Nc2ccccc2N1 (stereo not given) | 0.0058 mg/mL (≈ 18.6 µM)
32 | Clc1ccc2nc(-c3ccc(Cl)nc3)[nH]c2c1 | 0.0135 mg/mL (≈ 51.1 µM)
33 | CCOc1cc(N2CCOCC2)c(OCC)cc1NC(=O)c1cccc(S(=O)(=O)N2CCOCC2)c1 | > 0.0779 mg/mL
34 | COC(=O)c1nccnc1C(=O)Nc1ccccc1N1CCOCC1 | > 0.0514 mg/mL
35 | Cc1ccc(-c2csc3ncn(CC(=O)O)c(=O)c23)cc1C | > 0.0472 mg/mL
36 | CCOc1ccccc1CNCCNCC(C)O.Cl (stereo not given) | > 0.0488 mg/mL
37 | Nc1nccc(-c2ccc(-n3cccc3)cc2)n1 | < 0.0001 mg/mL
38 | O=C(NCCNC(=O)c1ccccc1)c1ccccc1 | > 0.0402 mg/mL
39 | CC1=Nc2ccccc2N=C(NC(=O)/C=C/C(=O)O)C1c1ccccc1 (stereo not given) | > 0.0521 mg/mL
40 | Cc1cc([N+](=O)[O-])ccc1NC(=O)C(C)NC1CCCCC1 (stereo not given) | > 0.0458 mg/mL
41 | CSCc1c(C(=O)Nc2ccc3c(c2)OCO3)oc2ccccc12 | 0.0064 mg/mL (≈ 18.7 µM)
42 | Cc1ccccc1NC(=O)COC(=O)C1C2CC3OC(=O)C1C3C2 (stereo not given) | > 0.0494 mg/mL
43 | Cc1ccc(C(=O)Nc2cc(C)nn2CCC#N)cc1 | > 0.0402 mg/mL
44 | O=C(CN1CCOCC1)NNc1c2ccccc2nc2ccccc12 | > 0.0505 mg/mL

Row | Structure (SMILES) | solubility kinetic
45 | CCS(=O)(=O)N1CCCC(C(=O)c2ccc(OC)cc2C)C1 (stereo not given) | 0.042 mg/mL (≈ 129 µM)
46 | Cc1nc2ccc(-c3nc4ccc(N)cc4[nH]3)cc2[nH]1 | 0.0394 mg/mL (≈ 150 µM)
47 | CSc1nc(=S)n(-c2cc(C)ccc2C)c(C)c1C(C)=O | > 0.0478 mg/mL
48 | Cc1cc(NC(=O)NC2CC(=O)N(c3ccc4c(c3)OCCO4)C2)no1 (stereo not given) | 0.0485 mg/mL (≈ 135 µM)
49 | O=C(Cc1ccsc1)NCC(=O)Nc1ccccc1Br | > 0.053 mg/mL
50 | O=C(NCC1CCCO1)c1cc2c(=O)[nH]c3ccccc3c2s1 (stereo not given) | 0.0026 mg/mL (≈ 7.92 µM)
51 | O=C(NC1CCCC1)c1c(O)nc2sccn2c1=O | > 0.0419 mg/mL
52 | Cc1nc(N2CCN(C(=O)c3ccco3)CC2)[nH]c(=O)c1C | > 0.0453 mg/mL
53 | O=C(/C=C/c1ccccc1[N+](=O)[O-])N1CCc2ccccc2C1 | 0.0203 mg/mL (≈ 65.8 µM)
54 | O=C1c2cccc3cccc(c23)C(=O)N1c1ccccc1Cl | 0.0008 mg/mL (≈ 2.6 µM)
55 | Cc1cccc(C)c1OCC(=O)Nc1cccc(C(=O)O)c1 | > 0.0449 mg/mL
56 | CCc1ccc(S(=O)(=O)N2CCN(c3ncccn3)CC2)cc1 | 0.0017 mg/mL (≈ 5.11 µM)
57 | COc1ccccc1/C=N/OCc1cc(C(C)=O)ccc1OC | 0.0084 mg/mL (≈ 26.8 µM)
58 | O=C(CCc1ccccc1)NC1C2CC3CC(C2)CC1C3 (stereo not given) | 0.0346 mg/mL (≈ 122 µM)
59 | O=c1oc2ccccc2c(CNc2ccccc2)c1[N+](=O)[O-] | 0.0031 mg/mL (≈ 10.5 µM)
60 | Cc1ccc(Cl)cc1Nc1nc(-c2cccnc2)cs1 | 0.0002 mg/mL (≈ 0.663 µM)
61 | O=C(O)c1ccccc1NCCO | 0.024 mg/mL (≈ 132 µM)
62 | Cc1cccc(Cn2nc(C(C)(C)C)cc2C(=O)N2CCOCC2)c1 | > 0.0512 mg/mL
63 | O=C(CNC(=O)c1ccco1)Nc1ccc2c(c1)OCCO2 | > 0.0453 mg/mL
64 | Cc1onc(-c2c(Cl)cccc2Cl)c1/C(N)=N/OC(=O)C1CC1 | 0.0471 mg/mL (≈ 133 µM)
65 | CC(=O)NC(CSc1cc(C)nc2ccc(Br)cc12)C(=O)O (stereo not given) | 0.0572 mg/mL (≈ 149 µM)
66 | COc1ccccc1/C=C/C(=O)OCC(=O)Nc1ccc(Cl)cn1 | 0.0011 mg/mL (≈ 3.17 µM)

Row | Structure (SMILES) | solubility kinetic
67 | COc1cccc(NC(=O)C(=S)NC2CCCCC2)c1 | 0.0013 mg/mL (≈ 4.45 µM)
68 | Cc1c(Cl)cccc1NC(=S)NCc1ccco1 | 0.0401 mg/mL (≈ 143 µM)
69 | Cc1ccc(S(=O)(=O)N2CCC[C@H]2C(=O)Nc2ccccc2C)cc1 | > 0.0538 mg/mL
70 | CCN(CCS(=O)(=O)c1ccc(Cl)cc1)C(=O)Nc1ccc(Cl)cc1 | 0.0432 mg/mL (≈ 108 µM)
71 | O=C(Nc1nc2ccccc2[nH]1)C1CCC1 | 0.006 mg/mL (≈ 27.9 µM)
72 | CC(C)Cc1ccc(C(C)C(=N)N)cc1.Cl (stereo not given) | > 0.0361 mg/mL
73 | Cc1nc(Cl)sc1C(=O)Nc1cccc(Cl)c1 | 0.0348 mg/mL (≈ 121 µM)
74 | COc1cc(NC(=O)COC(=O)c2ccc([N+](=O)[O-])s2)cc(OC)c1OC | 0.0104 mg/mL (≈ 26.2 µM)
75 | CC1=C(C(=O)OC(C)C)C(c2ccccc2)NC(=O)N1C (stereo not given) | > 0.0433 mg/mL
76 | O=C(Nc1ccc2ccccc2c1)c1cc(F)c(F)cc1Cl | < 0.0007 mg/mL
77 | Cc1ccc(N2C(=O)c3ccccc3C2=O)cc1 | 0.0027 mg/mL (≈ 11.4 µM)
78 | CN(CCc1nnc(N)s1)[N+](=O)[O-] | > 0.0305 mg/mL
79 | O=C(CN1C(=O)NC2(CCCCC2)C1=O)Nc1ccc2c(c1)CCC2 | 0.0051 mg/mL (≈ 14.9 µM)
80 | COc1ccccc1-c1cc(-c2ccccc2)nc(=O)[nH]1 | > 0.0417 mg/mL
81 | COc1ccccc1NS(=O)(=O)c1ccc2[nH]c(=S)oc2c1 | > 0.0505 mg/mL
82 | CCN(CC)c1ccc(NC(=S)NC(=O)c2cccs2)cc1 | < 0.0002 mg/mL
83 | CC(=O)c1ccc(NC(=O)Cc2cccs2)cc1 | 0.0372 mg/mL (≈ 143 µM)
84 | CC1CCCCC1NC(=S)Nc1ccc(Cl)cc1Cl (stereo not given) | 0.001 mg/mL (≈ 3.15 µM)
85 | Cc1cccc(N2CC(C(=O)Nc3ccc(N4CCOCC4)cc3)CC2=O)c1C (stereo not given) | > 0.059 mg/mL
